Measured values taken from ChEMBL document CHEMBL2029316, “Linker-based hemisuccinate derivatives of artemisinin: synthesis and antimalarial assessment against multidrug-resistant Plasmodium yoelii nigeriensis in mice” (J Med Chem, 2012).
Active and inactive are the calls of the source. The calls are words filed in the database; no cut-off is given here.

Tested on: Plasmodium yoelii nigeriensis
Test: Antimalarial activity against chloroquine-, mefloquine-, halofantrine-resistant Plasmodium yoelii nigeriensis blood stream schizonts infected in Swiss mouse assessed as suppression of parasitemia at 48 mg/kg, im administered once daily for 4 days relative to control
Type: functional
Conditions: route intramuscular

Structure (SMILES)	Activity [%]
C[C@H]1[C@@H](OCCOCCOCCOCCOC(=O)CCC(=O)O)O[C@@H]2O[C@@]3(C)CC[C@H]4[C@H](C)CC[C@@H]1[C@@]24OO3	97
C[C@H]1[C@@H](OCCOCCOC(=O)CCC(=O)O)O[C@@H]2O[C@@]3(C)CC[C@H]4[C@H](C)CC[C@@H]1[C@@]24OO3	100
C[C@H]1[C@@H](OCCCCCCCCCCO)O[C@@H]2O[C@@]3(C)CC[C@H]4[C@H](C)CC[C@@H]1[C@@]24OO3	100
C[C@H]1[C@@H](OCCCCCCCCCCCCO)O[C@@H]2O[C@@]3(C)CC[C@H]4[C@H](C)CC[C@@H]1[C@@]24OO3	100
C[C@H]1[C@@H](OCCCCO)O[C@@H]2OC3(C)CC[C@H]4[C@H](C)CC[C@@H]1[C@@]24OO3	100
C[C@H]1[C@@H](OCCCCCCCCCCCCOC(=O)CCC(=O)O)O[C@@H]2O[C@@]3(C)CC[C@H]4[C@H](C)CC[C@@H]1[C@@]24OO3	100

Tested on: Plasmodium yoelii nigeriensis
Test: Antimalarial activity against chloroquine-, mefloquine-, halofantrine-resistant Plasmodium yoelii nigeriensis blood stream schizonts infected in Swiss mouse assessed as disease cured mouse at 48 mg/kg, im administered once daily for 4 days measured on day 28
Type: functional, organism-based
Parameters: dose 48 mg/kg
Conditions: not given

Structure (SMILES)	Activity
C[C@H]1[C@@H](OCCOCCOCCOCCOC(=O)CCC(=O)O)O[C@@H]2O[C@@]3(C)CC[C@H]4[C@H](C)CC[C@@H]1[C@@]24OO3	inactive
C[C@H]1[C@@H](OCCCCCCCCCCO)O[C@@H]2O[C@@]3(C)CC[C@H]4[C@H](C)CC[C@@H]1[C@@]24OO3	Active
C[C@H]1[C@@H](OCCCCO)O[C@@H]2OC3(C)CC[C@H]4[C@H](C)CC[C@@H]1[C@@]24OO3	Active
C[C@H]1[C@@H](OCCCCCCCCCCCCOC(=O)CCC(=O)O)O[C@@H]2O[C@@]3(C)CC[C@H]4[C@H](C)CC[C@@H]1[C@@]24OO3	Active

Tested on: Plasmodium yoelii nigeriensis
Test: Antimalarial activity against chloroquine-, mefloquine-, halofantrine-resistant Plasmodium yoelii nigeriensis blood stream schizonts infected in Swiss mouse assessed as suppression of parasitemia at 6 mg/kg, im administered once daily for 4 days relative to control
Type: functional
Conditions: route intramuscular

Structure (SMILES)	Activity [%]
C[C@H]1[C@@H](OCCCCCCCCCCO)O[C@@H]2O[C@@]3(C)CC[C@H]4[C@H](C)CC[C@@H]1[C@@]24OO3	100
C[C@H]1[C@@H](OCCCCO)O[C@@H]2OC3(C)CC[C@H]4[C@H](C)CC[C@@H]1[C@@]24OO3	100
C[C@H]1[C@@H](OCCCCCCCCCCCCOC(=O)CCC(=O)O)O[C@@H]2O[C@@]3(C)CC[C@H]4[C@H](C)CC[C@@H]1[C@@]24OO3	57.09

Tested on: Plasmodium yoelii nigeriensis
Test: Antimalarial activity against chloroquine-, mefloquine-, halofantrine-resistant Plasmodium yoelii nigeriensis blood stream schizonts infected in Swiss mouse assessed as disease cured mouse at 6 mg/kg, im administered once daily for 4 days measured on day 28
Type: functional, organism-based
Parameters: dose 6 mg/kg
Conditions: not given

Structure (SMILES)	Activity
C[C@H]1[C@@H](OCCCCCCCCCCO)O[C@@H]2O[C@@]3(C)CC[C@H]4[C@H](C)CC[C@@H]1[C@@]24OO3	inactive
C[C@H]1[C@@H](OCCCCCCCCCCCCOC(=O)CCC(=O)O)O[C@@H]2O[C@@]3(C)CC[C@H]4[C@H](C)CC[C@@H]1[C@@]24OO3	inactive

Tested on: Plasmodium yoelii nigeriensis
Test: Antimalarial activity against chloroquine-, mefloquine-, halofantrine-resistant Plasmodium yoelii nigeriensis blood stream schizonts infected in Swiss mouse assessed as suppression of parasitemia at 24 mg/kg, im administered once daily for 4 days relative to control
Type: functional
Conditions: route intramuscular

Structure (SMILES)	Activity [%]
C[C@H]1[C@@H](OCCCCCCCCCCO)O[C@@H]2O[C@@]3(C)CC[C@H]4[C@H](C)CC[C@@H]1[C@@]24OO3	100
C[C@H]1[C@@H](OCCCCCCCCCCCCO)O[C@@H]2O[C@@]3(C)CC[C@H]4[C@H](C)CC[C@@H]1[C@@]24OO3	100
C[C@H]1[C@@H](OCCCCO)O[C@@H]2OC3(C)CC[C@H]4[C@H](C)CC[C@@H]1[C@@]24OO3	100
C[C@H]1[C@@H](OCCCCCCCCCCCCOC(=O)CCC(=O)O)O[C@@H]2O[C@@]3(C)CC[C@H]4[C@H](C)CC[C@@H]1[C@@]24OO3	100

Tested on: not listed separately
Test: Lipophilicity, log P of the compound
Type: physicochemical
Conditions: octanol/water

Structure (SMILES)	logP
C[C@H]1[C@@H](OCCOCCOCCOCCOC(=O)CCC(=O)O)O[C@@H]2O[C@@]3(C)CC[C@H]4[C@H](C)CC[C@@H]1[C@@]24OO3	2.42
C[C@H]1[C@@H](OCCOCCOC(=O)CCC(=O)O)O[C@@H]2O[C@@]3(C)CC[C@H]4[C@H](C)CC[C@@H]1[C@@]24OO3	2.73
C[C@H]1[C@@H](OCCCCCCCCCCO)O[C@@H]2O[C@@]3(C)CC[C@H]4[C@H](C)CC[C@@H]1[C@@]24OO3	6.05
C[C@H]1[C@@H](OCCCCCCCCCCCCO)O[C@@H]2O[C@@]3(C)CC[C@H]4[C@H](C)CC[C@@H]1[C@@]24OO3	6.89
C[C@H]1[C@@H](OCCCCO)O[C@@H]2OC3(C)CC[C@H]4[C@H](C)CC[C@@H]1[C@@]24OO3	3.55
C[C@H]1[C@@H](OCCCCCCCCCCCCOC(=O)CCC(=O)O)O[C@@H]2O[C@@]3(C)CC[C@H]4[C@H](C)CC[C@@H]1[C@@]24OO3	6.78

Tested on: Plasmodium yoelii nigeriensis
Test: Antimalarial activity against chloroquine-, mefloquine-, halofantrine-resistant Plasmodium yoelii nigeriensis blood stream schizonts infected in Swiss mouse assessed as disease cured mouse at 12 mg/kg, im administered once daily for 4 days measured on day 28
Type: functional, organism-based
Parameters: dose 12 mg/kg
Conditions: not given

Structure (SMILES)	Activity
C[C@H]1[C@@H](OCCCCCCCCCCO)O[C@@H]2O[C@@]3(C)CC[C@H]4[C@H](C)CC[C@@H]1[C@@]24OO3	inactive
C[C@H]1[C@@H](OCCCCO)O[C@@H]2OC3(C)CC[C@H]4[C@H](C)CC[C@@H]1[C@@]24OO3	Active
C[C@H]1[C@@H](OCCCCCCCCCCCCOC(=O)CCC(=O)O)O[C@@H]2O[C@@]3(C)CC[C@H]4[C@H](C)CC[C@@H]1[C@@]24OO3	inactive

Tested on: Plasmodium yoelii nigeriensis
Test: Antimalarial activity against chloroquine-, mefloquine-, halofantrine-resistant Plasmodium yoelii nigeriensis infected in Swiss mouse assessed as protection from infection at 3 to 48 mg/kg, im administered once daily for 4 days measured on day 28 relative to artesunic acid
Type: functional
Conditions: dose mg/kg 3-48; route intramuscular

Structure (SMILES)	fold change (FC)
C[C@H]1[C@@H](OCCCCCCCCCCCCOC(=O)CCC(=O)O)O[C@@H]2O[C@@]3(C)CC[C@H]4[C@H](C)CC[C@@H]1[C@@]24OO3	2

Tested on: Plasmodium yoelii nigeriensis
Test: Antimalarial activity against chloroquine-, mefloquine-, halofantrine-resistant Plasmodium yoelii nigeriensis blood stream schizonts infected in Swiss mouse assessed as suppression of parasitemia at 12 mg/kg, im administered once daily for 4 days relative to control
Type: functional
Conditions: route intramuscular

Structure (SMILES)	Activity [%]
C[C@H]1[C@@H](OCCCCCCCCCCO)O[C@@H]2O[C@@]3(C)CC[C@H]4[C@H](C)CC[C@@H]1[C@@]24OO3	100
C[C@H]1[C@@H](OCCCCO)O[C@@H]2OC3(C)CC[C@H]4[C@H](C)CC[C@@H]1[C@@]24OO3	100
C[C@H]1[C@@H](OCCCCCCCCCCCCOC(=O)CCC(=O)O)O[C@@H]2O[C@@]3(C)CC[C@H]4[C@H](C)CC[C@@H]1[C@@]24OO3	71.27

Tested on: Plasmodium yoelii nigeriensis
Test: Antimalarial activity against chloroquine-, mefloquine-, halofantrine-resistant Plasmodium yoelii nigeriensis blood stream schizonts infected in Swiss mouse assessed as disease cured mouse at 24 mg/kg, im administered once daily for 4 days measured on day 28
Type: functional, organism-based
Parameters: dose 24 mg/kg
Conditions: not given

Structure (SMILES)	Activity
C[C@H]1[C@@H](OCCCCCCCCCCCCO)O[C@@H]2O[C@@]3(C)CC[C@H]4[C@H](C)CC[C@@H]1[C@@]24OO3	inactive
C[C@H]1[C@@H](OCCCCO)O[C@@H]2OC3(C)CC[C@H]4[C@H](C)CC[C@@H]1[C@@]24OO3	Active
C[C@H]1[C@@H](OCCCCCCCCCCCCOC(=O)CCC(=O)O)O[C@@H]2O[C@@]3(C)CC[C@H]4[C@H](C)CC[C@@H]1[C@@]24OO3	Active

Tested on: Plasmodium yoelii nigeriensis
Test: Antimalarial activity against chloroquine-, mefloquine-, halofantrine-resistant Plasmodium yoelii nigeriensis blood stream schizonts infected in Swiss mouse assessed as suppression of parasitemia at 3 mg/kg, im administered once daily for 4 days relative to control
Type: functional
Conditions: route intramuscular

Structure (SMILES)	Activity [%]
C[C@H]1[C@@H](OCCCCO)O[C@@H]2OC3(C)CC[C@H]4[C@H](C)CC[C@@H]1[C@@]24OO3	98.3
